The record followed here is patent US11760773B2, “Small molecule drug conjugates of gemcitabine monophosphate” (MaveriX Oncology, Inc., priority 2018, dated 2023).

The nature of series [1]: Gemcitabine normal tissue and plasma PK in CD-1 mice (study e). The series is classed as in vivo. The following applies: male CD-1 mice, iv gemcitabine, FIG. 6. How it is done: Objectives: to determine the normal tissue pharmacokinetics, distribution, and stability of gemcitabine in select excretory organs and plasma following a single intravenous infusion administration of gemcitabine at 10.5 mg/kg in male CD-1 mice.
PK measurements: determine PK parameters C0, CL, Vdss, Cmax, tmax, t1/2, AUC(0-t), AUC(0-inf), MRT(0-t), MRT(0-inf) for gemcitabine

A short description of series [2]: Solubility / formulation. Format: physicochemical.
The nature of series [3]: Int 1-4 normal tissue and plasma PK in CD-1 mice (study d). Format: in vivo. Conditions: male CD-1 mice, iv Int 1-4, FIG. 5. The protocol:
Objectives: to compare the normal tissue pharmacokinetics, distribution, and stability of Int 1-4 in excretory organs following a single intravenous infusion administration of Int 1-4 at 20 mg/kg in male CD-1 mice.
PK measurements: compare PK parameters C0, CL, Vdss, Cmax, tmax, t1/2, AUC(0-t), AUC(0-inf), MRT(0-t), MRT(0-inf) for Int 1-4

A short description of series [4]: Human liver S9 stability. Format: in vitro ADME. Conditions: for microsomal CLint: human.
Series [5] in a line: Liver microsomal stability, monkey. Format: in vitro ADME. Conditions: monkey liver microsomes. On the technique in general: Microsomes from liver hold many membrane-bound enzymes, among them those of drug oxidation.
Series [6] can be described thus: Liver microsomal stability, mouse. Conditions: mouse liver microsomes. Format: in vitro ADME.
Series [7] can be described thus: Metabolic stability in liver hepatocytes, across species. The series is classed as in vitro ADME. The following applies: mouse, dog, monkey, rat highest, human lowest, read-out: intrinsic clearance values Cint.

In the case of `Nc1ccn([C@@H]2O[C@H](CO)[C@@H](O)C2(F)F)c(=O)n1` [Gemcitabine, gemcitabine], the “fate in plasma and normal tissue” value in series [1] is “deaminated to dFdU”.
Consider `COc1cc(OC)c2oc(COC(=O)Nc3ccn([C@@H]4O[C@H](CO)[C@@H](O)C4(F)F)c(=O)n3)cc2c1` [Int 1-4, (5,7-di(methoxy)benzofuran-2-yl)methyl (1-((2R,4R,5R)-3,3-difluoro-4-hydroxy-5-(hydroxymethyl)tetrahydrofuran-2-yl)-2-oxo-1,2-dihydropyrimidin-4-yl)carbamate], for which the solubility entry in series [2] was “low to moderate solubility”. Further, the “formulated to” value in series [2] (formulation) stood at 50 mg/mL. For the same compound, in series [3], the “stability in plasma and major excretory organs (liver, kidney)” value is “stable”. Further, in series [4] (human liver S9), the “Slope Mean ± SE” value is recorded as −0.005545 ± 0.000717. Further, the half-life in series [4] (human liver S9, read-out: t1/2 Mean ± SE) turned out to be 2.08 ± 0.27 h; in series [5], 0.567 h; in series [6] it was 1.35 h. The microsomal CLint in series [4] (liver S9, human liver S9, summary, read-out: S9 intrinsic clearance Clint) is less than 2.5 µL/min/mg; in series [4] (liver S9, human liver S9, text value, read-out: intrinsic clearance value), 2.22 µL/min/mg; in series [4] (liver S9, human liver S9, read-out: CLint Mean ± SE), 2.22 ± 0.287 µL/min/mg; in series [5], 40.8 µL/min/mg; in series [6], 17.1 µL/min/mg; in series [7], 3 to 8 µL/min/mg. In addition, the “Compound Remaining (% of 0 min) 0 min” value in series [5] (0 min) and in series [6] (0 min) was 100 % of 0 min each time. The “Compound Remaining (% of 0 min) 5 min” value is 99.5 % of 0 min in series [5] (5 min) and 102 % of 0 min in series [6] (5 min). Besides, the “Compound Remaining (% of 0 min) 15 min” value is 79.8 % of 0 min in series [5] (15 min) and 78.4 % of 0 min in series [6] (15 min). In addition, the “Compound Remaining (% of 0 min) 30 min” value in series [5] (30 min) is listed as 61.0 % of 0 min; in series [6] (30 min) it was 73.6 % of 0 min. Also, the “Compound Remaining (% of 0 min) 45 min” value in series [5] (45 min) is recorded as 40.5 % of 0 min; in series [6] (45 min) it was 70.7 % of 0 min. The “Compound Remaining (% of 0 min) control” value in series [5] (control) was 97.2 % of 0 min; in series [6] (control) it was 93.2 % of 0 min.
